# According to patent US20220023381A1, “VDAC INHIBITORS FOR TREATING AUTOIMMUNE DISEASES” (NATIONAL INSTITUTE FOR BIOTECHNOLOGY IN THE NEGEV LTD., priority 2018, published 2022):
# No end group written: not given here.
# How the values were obtained:
# mtDNA (120 bp) = test: mtDNA-peptide binding (pull-down) assay; set-up: species or system mouse; details: biotinylated peptide, Streptavidin Dynabeads
# Description: C-terminal biotinylated peptides corresponding to amino acid residues from 1 to 26 of mouse VDAC1 (SEQ ID NO:1) and a mutant peptide (SEQ ID NO:72) with acetylation (N-terminus) and amidation (C-terminus) were synthesized and purified by Genscript (Piscataway, N.J., USA). Mitochondrial DNA was amplified using PCR with mtDNA specific primer of the D-loop region. The primers used were as follow (5′-3′): mtDNA 120 bp forward (SEQ ID NO:73), and reverse (SEQ ID NO:74). Purified mtDNA (120 bp) was incubated rotating end-over-end with peptides and Streptavidin Dynabeads (Invitrogen) for 18 h at 4° C. The peptides were captured by the Streptavidin Dynabeads, and unbound peptides and free mtDNA were removed by extensive washing with PBS. The samples were treated with proteinase K for 30 min at 60° C., and the mtDNA in the supernatant was purified with QIAquick Nucleotide Removal Kit (Qiagen). The purified mtDNA was quantified using real-time RT-PCR with the D-loop3 primers.
# EndoG−/− MEFs [1] = test: ISG expression in EndoG−/− MEFs (real-time PCR / western blot); format: cell-based, mouse
# Experimental: Total RNA was extracted using RNeasy Plus Mini Kit (Qiagen) according to the manufacturer's instructions. The first-strand cDNA was synthesized from 2 μg purified mRNA using Accupower RT PreMix (BioNeer). The reaction mixtures were incubated at 42° C. for 60 min and 94° C. for 5 min. Real-time RT-PCR was performed using the LightCycler 96 system (Roche Life Science) with SYBR Green master mix (Roche). The primers used were as follow (5′-3′): EndoG forward (SEQ ID NO:36), and reverse (SEQ ID NO:37); Cxcl10 forward (SEQ ID NO:38), and reverse (SEQ ID NO:39); GAPDH forward (SEQ ID NO:40), and reverse (SEQ ID NO:41); Ifi44 forward (SEQ ID NO:42), and reverse (SEQ ID NO:43); Ifit1 forward (SEQ ID NO:44), and reverse (SEQ ID NO:45); Ifit3 forward (SEQ ID NO:46), and reverse (SEQ ID NO:47); IFNα4 forward (SEQ ID NO:48), and reverse (SEQ ID NO:49); IFNβ forward (SEQ ID NO:50), and reverse (SEQ ID NO:51); Iigp1 forward (SEQ ID NO:52), and reverse (SEQ ID NO:53); ISG15 forward (SEQ ID NO:54), and reverse (SEQ ID NO:55); Oasl2 forward (SEQ ID NO:56), and reverse (SEQ ID NO:57); Rsad2 forward (SEQ ID NO:58), and reverse (SEQ ID NO:59); USP18 forward (SEQ ID NO:60), and reverse (SEQ ID NO:61); VDAC1 forward (SEQ ID NO:62), and reverse (SEQ ID NO:63). GAPDH was used as an internal standard of mRNA expression, and the ratio of the target gene expression to GAPDH expression was calculated using LightCycler 96 Instrument software (Roche). The quality of real-time RT-PCR results was evaluated based on the melting temperature (Tm) of a DNA fragment and melting curve analysis.
# LMEB-4 (ρ0) cells = test: Ifi44 expression in LMEB-4 (ρ0) cells lacking mtDNA; format: cell-based; details: 100 μM DIDS
# Experimental: (§1) The following mouse embryonic fibroblasts (MEFs) were used: VDAC1/3^−/− (MEFs) and Bak/Bax^−/− MEFs with the respective WT counterparts; WT and cGAS^−/− MEFs; WT and IRF3/IRF7^−/− MEFs; and WT and MICU1^−/− MEFs. All MEFs were grown in complete Dulbecco's modified Eagle's medium (DMEM, Corning) supplemented with 10% fetal bovine serum (FBS, Sigma-Aldrich) and 1% penicillin and streptomycin (antibiotics, Gibco) at 37° C. with 5% CO2. LMTK-1 cells were grown in complete RPMI 1640 medium (Gibco) supplemented with 10% FBS and antibiotics. The LMTK^−-derived cell line lacking mtDNA (ρ^o), LMEB-4, was grown in LMTK-1 growth medium supplemented with uridine (50 μg/ml, Sigma-Aldrich) and sodium pyruvate (1 mM, Gibco). WT (ρ^o) and EndoG^−/− (ρ^o) MEFs were generated by incubation with ethidium bromide (Invitrogen) in complete DMEM supplemented with 15% FBS, antibiotics, uridine (50 μg/ml), and pyruvate (1 mM) for 5 months.
# (§2) Total RNA was extracted using RNeasy Plus Mini Kit (Qiagen) according to the manufacturer's instructions. […] GAPDH was used as an internal standard of mRNA expression, and the ratio of the target gene expression to GAPDH expression was calculated using LightCycler 96 Instrument software (Roche). The quality of real-time RT-PCR results was evaluated based on the melting temperature (Tm) of a DNA fragment and melting curve analysis.
# LMTK-1 (WT) cells = test: Ifi44 expression in LMTK-1 (WT) cells; format: cell-based; details: 100 μM DIDS
# Experimental: as §1, §2
# TFAM^KD MEFs = test: ISG expression in TFAM KD MEFs; format: cell-based, mouse
# Experimental: as §1, with “months. […]” for “months.”
# as §2, with “analysis. […]” for “analysis.”
# [2] = test system: mitochondria from MICU1−/− MEFs; test: mtDNA release from isolated mitochondria of MICU1−/− MEFs; set-up: species or system mouse; details: buffer lacking Ca2+, with or without DIDS
# Experimental: Therefore, it was postulated that VDAC may be increasing mtDNA release in living cells merely by increasing mitochondrial Ca^2+ and promoting PTP formation. To examine this possibility, mitochondria from MICU1^−/− MEFs, which already have elevated Ca^2+ and ROS levels (FIG. 6F), were isolated and incubated in a buffer lacking Ca^2+ either with or without DIDS.
# MICU1−/− MEFs = test: ISG induction in MICU1−/− MEFs; format: cell-based, mouse; details: treatment with DIDS
# Experimental: as §1, §2
# 143B cells = test: Quantification of fimtDNA (free intra-mtDNA fragments); format: cell-based
# Experimental: For the quantification of fimtDNA release, 143B cells were resuspended in mitochondrial isolation buffer and subsequently homogenized 30 times with pestle B (small clearance). The homogenized samples were centrifuged at 1,000 g for 10 min at 4° C. The supernatant was transferred to a new tube and centrifuged at 1,000 g for 5 min at 4° C., and the mitochondrial pellet was collected after the centrifugation of the final supernatant at 11,500 g for 10 min at 4° C. Isolated mitochondria were resuspended in 50 μl CSK buffer containing 10 mM PIPES pH 6.8, 300 mM sucrose, 100 mM NaCl, 3 mM MgCl2, 1 mM EGTA, and 0.05% Triton X-100, for 5 min on ice, and the supernatant (fimtDNA) and CSK-pellet fractions were collected after centrifugation at 17,000 g for 30 min at 4° C. A 1:20 dilution of CSK-sup was used for real-time PCR with fimtDNA primers in each reaction. The primers used were as follow (5′-3′): hfimtNDA forward (SEQ ID NO:70), and reverse (SEQ ID NO:71). CSK-pellet was resuspended in 100 μl lysis buffer containing 20 mM EDTA and proteinase K and incubated at 56° C. overnight. The digested pellet was diluted with water (1:20 to 1:100) and heated at 95° C. for 20 min to inactivate proteinase K, and the CSK-pellet fraction was used for real-time PCR in each reaction. The fimtDNA in CSK-sup was normalized to the mtDNA in CSK-pellet.
# VDAC1/3−/− MEFs = test: ISG expression in VDAC1/3−/− MEFs; format: cell-based, mouse; details: treatment with Ca2+ chelator BAPTA
# Experimental: as §1, §2
# EndoG−/− MEFs [3] = test: ROS levels in EndoG−/− MEFs; format: cell-based, mouse; details: Mito-TEMPO (10 μM), 3 days
# Experimental: Cellular cGAMP levels were measured by LC/MS (Agilent Technologies) using 5% perchloric acid extracts of WT and EndoG^−/− MEFs. Intracellular ROS production in MEFs was measured using the oxidative stress indicator CM-H2DCFDA (Invitrogen) with flow cytometry (FACS). Mitochondrial ROS in MEFs was evaluated using the mitochondrial superoxide indicator MitoSOX (Invitrogen) with a confocal microscope (LSM880, Zeiss, and the fluorescence intensity was measured using Zen software (Zeiss). To quantify mitochondrial ROS in human PBMCs, the cells were obtained from heparinized blood using a Ficoll-Paque gradient. The cells were washed with PBS, resuspended in RPMI 1640 medium, and transferred to 96-well plates. Subsequently, the cells were stimulated with calcium ionophore A23187 (25 μM), VBIT-4 (5 μM), and MitoSOX (2 μM) (Life Technologies). After 1 h at 37° C., the fluorescence was measured at 510/595 nm using a microplate reader (Synergy HTX; BIOTEK). Cells without dye were used as the blank control.
# [4] = DIDS (100 μM), real-time PCR and western blot
# [5] = treatment with Ca2+ chelator BAPTA
compound,measurement,setting,value
26 amino acid VDAC1 N-terminal peptide: C-terminal biotinylated peptide corresponding to amino acid residues 1 to 26 of mouse VDAC1 (MAVPPTYADLGKSARDVFTKGYGFGL-biotin),pull-down of mtDNA fragment,mtDNA (120 bp),pulled-down the mtDNA fragment in dose-dependent manner
"O=S(=O)(O)c1cc(N=C=S)ccc1C=Cc1ccc(N=C=S)cc1S(=O)(=O)O [DIDS, 4,4′-Diisothiocyanatostilbene-2,2′-disulfonate]",ISG expression,EndoG−/− MEFs [1]; [4],inhibited
same,ISG (Ifi44) expression,LMEB-4 (ρ0) cells,not
same,ISG (Ifi44) expression,LMTK-1 (WT) cells,inhibited
same,ISG expression,TFAM^KD MEFs; [4],inhibited
same,mtDNA released during incubation,[2],decreased in a concentration-dependent manner
same,ISG induction,MICU1−/− MEFs,abrogated
CO[C@H]1C[C@@H]2CC[C@@H](C)[C@@](O)(O2)C(=O)C(=O)N2CCCC[C@H]2C(=O)O[C@H]([C@H](C)C[C@@H]2CC[C@@H](OCCO)[C@H](OC)C2)CC(=O)[C@H](C)/C=C(\C)[C@@H](O)[C@@H](OC)C(=O)[C@H](C)C[C@H](C)/C=C/C=C/C=C/1C [everolimus],fimtDNA,143B cells; 100 nM everolimus,decreased
"VDAC1 N-terminal mutant peptide: VDAC1 N-terminal peptide in which K12, R15, K20 were changed to Ala (MAVPPTYADLGASAADVFTAGYGFGL)",pull-down of mtDNA fragment,mtDNA (120 bp),not
O=C(O)CN(CC(=O)O)c1ccccc1OCCOc1ccccc1N(CC(=O)O)CC(=O)O [BAPTA],ISG expression,EndoG−/− MEFs [1]; [5],decreased
same,ISG expression,TFAM^KD MEFs; [5],decreased
same,ISG expression,VDAC1/3−/− MEFs,not
CC1(C)CC(NC(=O)C[P+](c2ccccc2)(c2ccccc2)c2ccccc2)CC(C)(C)N1[O] [mito-TEMPO],ISG expression,"EndoG−/− MEFs [1]; Mito-TEMPO (10 μM), 3 days",reduced
same,fimtDNA,143B cells; 50 nM mito-TEMPO,decreased
same,mROS,EndoG−/− MEFs [3],reduced
